For 44 molecules, EC50 and Emax results are on record in patent EP1585727B1, “INDOLES USEFUL IN THE TREATMENT OF ANDROGEN-RECEPTOR RELATED DISEASES” (priority 2002, dated 2004).

Structures can show the parent of a compound that is named as a salt.

In one experiment the target is T1, human androgen receptor (Homo sapiens, UniProt P10275).
T1 construct: expressed in transfected cells; host or cells: Chinese hamster ovary (CHO) cells, cell line CHO-AR-pMMTV-LUC 1G12-A5-CA
T1 sequence (P10275 1-920): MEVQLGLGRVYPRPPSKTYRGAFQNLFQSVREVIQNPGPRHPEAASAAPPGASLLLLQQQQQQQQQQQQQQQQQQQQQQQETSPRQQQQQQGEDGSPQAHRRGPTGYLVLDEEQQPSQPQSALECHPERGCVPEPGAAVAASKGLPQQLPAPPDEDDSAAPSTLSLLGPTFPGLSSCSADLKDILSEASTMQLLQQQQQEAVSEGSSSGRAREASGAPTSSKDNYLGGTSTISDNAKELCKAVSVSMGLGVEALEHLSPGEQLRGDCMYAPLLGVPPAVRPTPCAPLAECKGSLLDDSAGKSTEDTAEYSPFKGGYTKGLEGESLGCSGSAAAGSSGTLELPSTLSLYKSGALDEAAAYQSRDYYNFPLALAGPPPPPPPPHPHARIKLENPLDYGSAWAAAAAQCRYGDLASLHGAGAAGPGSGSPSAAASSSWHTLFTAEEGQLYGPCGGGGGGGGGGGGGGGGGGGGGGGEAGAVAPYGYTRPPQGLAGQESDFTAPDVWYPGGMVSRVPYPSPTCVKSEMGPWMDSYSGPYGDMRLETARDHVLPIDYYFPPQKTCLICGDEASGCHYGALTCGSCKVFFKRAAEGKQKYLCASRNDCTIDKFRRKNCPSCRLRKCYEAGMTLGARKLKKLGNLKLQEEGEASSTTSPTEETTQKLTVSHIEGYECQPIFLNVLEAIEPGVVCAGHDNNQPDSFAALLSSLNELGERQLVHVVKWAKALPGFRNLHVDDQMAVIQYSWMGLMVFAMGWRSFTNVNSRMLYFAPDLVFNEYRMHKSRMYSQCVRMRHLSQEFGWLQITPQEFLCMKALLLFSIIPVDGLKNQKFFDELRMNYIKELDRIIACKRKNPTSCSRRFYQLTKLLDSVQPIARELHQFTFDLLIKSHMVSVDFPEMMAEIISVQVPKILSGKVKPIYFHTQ
As to the kind of experiment: Androgen receptor transactivation assay, antiandrogenic activity: inhibition of transactivation in the presence of 1 nM DHT (CHO-AR-pMMTV-LUC cells; Table 4). The format is cell-based. To be noted: antiandrogenic activity, in the presence of 1 nM DHT; read-out: ant EC50. Here is the method:
Compounds were tested for their Androgen Receptor activity in a transactivation assay and in a binding assay.
The (anti-)androgenic activity of test compounds (EC50 and intrinsic activity) was determined in an in vitro bioassay of Chinese hamster ovary (CHO) cells stably transfected with the human androgen receptor expression plasmid and a reporter plasmid in which the MMTV-promoter is linked to the luciferase reporter gene. The cell-line CHO-AR-pMMTV-LUC 1G12-AS-CA is described in Schoonen et al. (2000), Journal of Steroid Biochemistry and Molecular Biology 74(4):213-222. The antiandrogenic activity of a test compound was determined by the inhibition of the transactivation via the androgen receptor of the enzyme luciferase in the presence of 1 nM DHT (5 α-dihydrotestosterone, 17β-hydroxy-5α-androstan-3-one). Intrinsic activity of antiandrogenic activity was determined in the presence of the reference antiandrogen 2-Hydroxy-2-methyl-N-(4-nitro-3-trifluoromethyl-phenyl)-propionamide (Hydroxyflutamide), and set at 100%. For androgenic activity, maximal intrinsic activity in the presence of 100 nM DHT was set at 100%. Table 4 Androgen receptor activity
In the case of `CC(C)NC(=O)c1ccc2c(Sc3ccccc3[N+](=O)[O-])cn(Cc3cc(F)cc(F)c3)c2c1` [Compound 46], the concentration for a half-maximal effect (EC50) is above 10 µM.

The same experiment, now with this note: in the presence of 1 nM DHT; intrinsic activity relative to reference antiandrogen Hydroxyflutamide (set at 100%); read-out: ant efficacy.
Consider `COc1ccc2c(Sc3ccccc3[N+](=O)[O-])cn(Cc3cc(F)ccc3F)c2c1` [Compound 1], for which the Emax is below 20%.
As for `COc1ccc2c(Sc3ccccc3[N+](=O)[O-])cn(Cc3cccc(C)c3F)c2c1` [Compound 2], the Emax is below 20%.
Regarding `COc1ccc2c(Sc3ccccc3[N+](=O)[O-])cn(Cc3ccccc3Cl)c2c1` [Compound 3], the Emax is below 20%.
Consider `COc1ccc2c(Sc3ccccc3[N+](=O)[O-])cn(Cc3ccccc3C#N)c2c1` [Compound 4], for which the Emax was in the range of 20 to 50%.
Consider `COc1ccc2c(Sc3ccccc3[N+](=O)[O-])cn(Cc3ccccc3F)c2c1` [Compound 5], for which the Emax was below 20%.
`COc1ccc2c(Sc3ccccc3[N+](=O)[O-])cn(Cc3ccccc3C)c2c1` [Compound 7]: the Emax was below 20%.
Same read-out and setting: in the case of `COc1ccc2c(Sc3ccccc3[N+](=O)[O-])cn(Cc3ccccn3)c2c1` [Compound 10, 6-Methoxy-3-(2-nitro-phenylsulfanyl)-1-pyridin-2 ylmethyl-1H-indole monohydrochloride] it was below 20%; in that of `COc1ccc2c(Sc3ccccc3[N+](=O)[O-])cn(Cc3ccccc3C(F)(F)F)c2c1` [Compound 12], below 20%; in that of `COc1ccc2c(Sc3ccccc3[N+](=O)[O-])cn(Cc3cc(C)on3)c2c1` [Compound 13], below 20%.
Regarding `COc1ccc2c(Sc3ccccc3[N+](=O)[O-])cn(Cc3ccc(Cl)c(Cl)c3)c2c1` [Compound 14], the Emax was below 20%.
Consider `COc1ccc2c(Sc3ccccc3[N+](=O)[O-])cn(Cc3cc(Cl)cc(Cl)c3)c2c1` [Compound 15], for which the Emax is below 20%.
The same measure, in the same setting: in the case of `CNC(=O)c1ccccc1Sc1cn(Cc2cc(F)cc(F)c2)c2cc(OC)ccc12` [Compound 17, 2-[1-(3,5-Difluoro-benzyl)-6-methoxy-1H-indol-3-ylsulfanyl]-N-methyl-benzamide] it was 50 to 80%; in that of `COC(=O)c1ccccc1Sc1cn(Cc2cc(F)cc(F)c2)c2cc(OC)ccc12` [Compound 19, 2-[1-(3,5-Difluoro-benzyl)-6-methoxy-1H-indol-3-ylsulfanyl]-benzoic acid methyl ester], below 20%.
Turning to `COc1ccc2c(Sc3ccccc3C#N)cn(Cc3cc(F)cc(F)c3)c2c1` [Compound 20, 2-[1-(3,5-Difluoro-benzyl)-6-methoxy-1H-indol-3-ylsulfanyl]-benzonitrile], the Emax is below 20%.
With `O=[N+]([O-])c1ccccc1Sc1cn(Cc2cc(F)cc(F)c2)c2cc(Br)ccc12` [Compound 22], the Emax was below 20%.
In the case of `O=[N+]([O-])c1ccccc1Sc1cn(Cc2cc(F)cc(F)c2)c2cc(C(F)(F)F)ccc12` [Compound 23], the Emax was below 20%.
Consider `O=[N+]([O-])c1ccccc1Sc1cn(Cc2cc(F)cc(F)c2)c2cc(CO)ccc12` [Compound 24], for which the Emax is below 20%.
As to `O=[N+]([O-])c1ccccc1Sc1cn(Cc2cc(F)cc(F)c2)c2cc(Cl)ccc12` [Compound 25], the Emax was below 20%.
Take `N#Cc1ccc2c(Sc3ccccc3[N+](=O)[O-])cn(Cc3cc(F)cc(F)c3)c2c1` [Compound 26, 1-(3,5-Difluoro-benzyl)-3-(2-nitro-phenylsulfanyl)-1H-indole-6-carbonitrile]: the Emax is below 20%.
Same read-out and setting: in the case of `O=C(c1ccc2c(Sc3ccccc3[N+](=O)[O-])cn(Cc3cc(F)cc(F)c3)c2c1)N1CCCC1` [Compound 27] it was below 20%; in that of `O=C(c1ccc2c(Sc3ccccc3[N+](=O)[O-])cn(Cc3cc(F)cc(F)c3)c2c1)N1CCOCC1` [Compound 28], below 20%; in that of `CN1CCN(C(=O)c2ccc3c(Sc4ccccc4[N+](=O)[O-])cn(Cc4cc(F)cc(F)c4)c3c2)CC1` [Compound 29], below 20%.
Regarding `O=C(O)c1ccc2c(Sc3ccccc3[N+](=O)[O-])cn(Cc3cc(F)cc(F)c3)c2c1` [Compound 30, 1-(3,5-Difluoro-benzyl)-3-(2-nitro-phenylsulfanyl)-1H-indole-6-carboxylic acid], the Emax was below 20%.
Regarding `COC(=O)c1ccc2c(Sc3ccccc3[N+](=O)[O-])cn(Cc3cc(F)cc(F)c3)c2c1` [Compound 31, 1-(3,5-Difluoro-benzyl)-3-(2-nitro-phenylsulfanyl)-1H-indole-6-carboxylic acid methyl ester], the Emax is below 20%.
`NC(=O)c1ccc2c(Sc3ccccc3[N+](=O)[O-])cn(Cc3cc(F)cc(F)c3)c2c1` [Compound 33, 1-(3,5-Difluoro-benzyl)-3-(2-nitro-phenylsulfanyl)-1H-indole-6-carboxylic acid amide]: the Emax is below 20%.
On to `O=C(NCc1ccco1)c1ccc2c(Sc3ccccc3[N+](=O)[O-])cn(Cc3cc(F)cc(F)c3)c2c1` [Compound 34], for which the Emax is below 20%.
As to `O=C(NCc1cccnc1)c1ccc2c(Sc3ccccc3[N+](=O)[O-])cn(Cc3cc(F)cc(F)c3)c2c1` [Compound 35], the Emax is below 20%.
Consider `CN(C)CCNC(=O)c1ccc2c(Sc3ccccc3[N+](=O)[O-])cn(Cc3cc(F)cc(F)c3)c2c1` [Compound 36], for which the Emax was below 20%.
As to `O=C(NCCO)c1ccc2c(Sc3ccccc3[N+](=O)[O-])cn(Cc3cc(F)cc(F)c3)c2c1` [Compound 37], the Emax was below 20%.
As to `COCCNC(=O)c1ccc2c(Sc3ccccc3[N+](=O)[O-])cn(Cc3cc(F)cc(F)c3)c2c1` [Compound 38], the Emax is below 20%.
On the same count and under the same terms, in the case of `COC(=O)CNC(=O)c1ccc2c(Sc3ccccc3[N+](=O)[O-])cn(Cc3cc(F)cc(F)c3)c2c1` [Compound 39] it was below 20%; in that of `CN(C)C(=O)CNC(=O)c1ccc2c(Sc3ccccc3[N+](=O)[O-])cn(Cc3cc(F)cc(F)c3)c2c1` [Compound 40], below 20%.
Take `O=C(NCC1CC1)c1ccc2c(Sc3ccccc3[N+](=O)[O-])cn(Cc3cc(F)cc(F)c3)c2c1` [Compound 41]: the Emax was below 20%.
As for `CC(C)CNC(=O)c1ccc2c(Sc3ccccc3[N+](=O)[O-])cn(Cc3cc(F)cc(F)c3)c2c1` [Compound 42], the Emax was below 20%.
For the molecule `O=C(NC1CC1)c1ccc2c(Sc3ccccc3[N+](=O)[O-])cn(Cc3cc(F)cc(F)c3)c2c1` [Compound 44], the Emax was below 20%.
On the same count and under the same terms, in the case of `CCNC(=O)c1ccc2c(Sc3ccccc3[N+](=O)[O-])cn(Cc3cc(F)cc(F)c3)c2c1` [Compound 45] it was below 20%.

Still in this experiment, the particulars now being: read-out: ant efficacy, in the presence of 1 nM DHT; intrinsic activity relative to reference antiandrogen Hydroxyflutamide (set at 100%).
As to `COc1ccc2c(Sc3ccccc3[N+](=O)[O-])cn(Cc3cccc([N+](=O)[O-])c3C)c2c1` [Compound 6], the Emax is below 20%.
Turning to `COc1ccc2c(Sc3ccccc3[N+](=O)[O-])cn(Cc3ccccc3[N+](=O)[O-])c2c1` [Compound 8], the Emax was below 20%.
For the molecule `COc1ccc2c(Sc3ccccc3[N+](=O)[O-])cn(Cc3ccccn3)c2c1` [Compound 9, 6-Methoxy-3-(2-nitro-phenylsulfanyl)-1-pyridin-2-ylmethyl-1H-indole], the Emax is 20 to 50%.
Same read-out and setting: in the case of `COc1ccc2c(Sc3ccccc3[N+](=O)[O-])cn(CC3CCCCO3)c2c1` (stereo not drawn) [Compound 11] it was below 20%; in that of `COc1ccc2c(Sc3ccccc3CO)cn(Cc3cc(F)cc(F)c3)c2c1` [Compound 16, {2-[1-(3,5-Difluoro-benzyl)-6-methoxy-1H-indol-3-ylsulfanyl]-phenyl}-methanol], 20 to 50%; in that of `CCN(CC)C(=O)c1ccc2c(Sc3ccccc3[N+](=O)[O-])cn(Cc3cc(F)cc(F)c3)c2c1` [Compound 32], 20 to 50%.
Still for that read-out and setting: in the case of `O=C(NCc1ccccc1)c1ccc2c(Sc3ccccc3[N+](=O)[O-])cn(Cc3cc(F)cc(F)c3)c2c1` [Compound 43] it was 20 to 50%.
As for `CC(C)NC(=O)c1ccc2c(Sc3ccccc3[N+](=O)[O-])cn(Cc3cc(F)cc(F)c3)c2c1` [Compound 46], the Emax lay in the range of 20 to 50%.
